Experimental data taken from PubChem BioAssay AID1963838 (Molecular Pharmacology Branch, DTP, NCI, 2024).

Tested on: 855422-203-R-J1-PDC complex spheroid viability
Test: Anticancer human tumor 855422-203-R-J1-PDC patient-derived bladder carcinoma cell line growth inhibition [POLQ]
Settings: for IC50: curve of first compound; for viability, T/C: stronger effect = lower value
Outline: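 Patient-derived tumour cells were co-cultured with HUVEC and mesenchymal stem cells as multicellular spheroids at 37 °C. They were treated with POLQ inhibitors (novobiocin, ART-558, RP6685) alone or combined with other agents. Top concentrations were at or near clinical Cmax (otherwise 10 microM; SN-38 at 1 microM), decreasing in half-log steps.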

[1] = second compound 0.0316 µM, first compound 0.0316 µM
[2] = second compound 0.0316 µM, first compound 0.1 µM
[3] = second compound 0.0316 µM, first compound 0.316 µM
[4] = second compound 0.0316 µM, first compound 1 µM
[5] = second compound 0.1 µM, first compound 0.0316 µM
[6] = second compound 0.1 µM, first compound 0.1 µM
[7] = second compound 0.1 µM, first compound 0.316 µM
[8] = second compound 0.1 µM, first compound 1 µM
[9] = second compound 0.316 µM, first compound 0.0316 µM
[10] = second compound 0.316 µM, first compound 0.1 µM
[11] = second compound 0.316 µM, first compound 0.316 µM
[12] = second compound 0.316 µM, first compound 1 µM
[13] = second compound 1 µM, first compound 0.0316 µM
[14] = second compound 1 µM, first compound 0.1 µM
[15] = second compound 1 µM, first compound 0.316 µM
[16] = second compound 1 µM, first compound 1 µM
[17] = second compound 3.16 µM, first compound 0.0316 µM
[18] = second compound 3.16 µM, first compound 0.1 µM
[19] = second compound 3.16 µM, first compound 0.316 µM
[20] = second compound 3.16 µM, first compound 1 µM
[21] = second compound 10 µM, first compound 0.0316 µM
[22] = second compound 10 µM, first compound 0.1 µM
[23] = second compound 10 µM, first compound 0.316 µM
[24] = second compound 10 µM, first compound 1 µM
[25] = second compound 0.0316 µM, first compound 3.16 µM
[26] = second compound 0.0316 µM, first compound 10 µM
[27] = second compound 0.1 µM, first compound 3.16 µM
[28] = second compound 0.1 µM, first compound 10 µM
[29] = second compound 0.316 µM, first compound 3.16 µM
[30] = second compound 0.316 µM, first compound 10 µM
[31] = second compound 1 µM, first compound 3.16 µM
[32] = second compound 1 µM, first compound 10 µM
[33] = second compound 3.16 µM, first compound 3.16 µM
[34] = second compound 3.16 µM, first compound 10 µM
[35] = second compound 10 µM, first compound 3.16 µM
[36] = second compound 10 µM, first compound 10 µM
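Also: spheroids exposed to compounds for seven days before readout.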

`C=CCn1c(=O)c2cnc(Nc3ccc(N4CCN(C)CC4)cc3)nc2n1-c1cccc(C(C)(C)O)n1` + COC1C(OC(N)=O)C(O)C(Oc2ccc3c(O)c(NC(=O)c4ccc(O)c(CC=C(C)C)c4)c(=O)oc3c2C)OC1(C)C gave an IC50 (second compound 0.0316 µM) greater than 1000 nM, an IC50 (second compound 0.1 µM) greater than 1000 nM and an IC50 (second compound 0.316 µM) greater than 1000 nM. The IC50 (second compound 1 µM) was greater than 1000 nM, the IC50 (second compound 3.16 µM) was greater than 1000 nM and the IC50 (second compound 10 µM) was greater than 1000 nM. The viability, T/C (second compound 0.0316 µM, first compound 0.00316 µM) was 90.6%, the viability, T/C (second compound 0.0316 µM, first compound 0.01 µM) was 93.2% and the viability, T/C [1] was 96.4%. It also gave a viability, T/C [2] of 94.5%, a viability, T/C [3] of 92.1% and a viability, T/C [4] of 101%. For the same molecule, the viability, T/C (second compound 0.1 µM, first compound 0.00316 µM) was 95.9%, the viability, T/C (second compound 0.1 µM, first compound 0.01 µM) was 94.3% and the viability, T/C [5] was 91.9%. It also gave a viability, T/C [6] of 107%, a viability, T/C [7] of 105% and a viability, T/C [8] of 99.7%. The viability, T/C (second compound 0.316 µM, first compound 0.00316 µM) was 98.7%, the viability, T/C (second compound 0.316 µM, first compound 0.01 µM) was 103% and the viability, T/C [9] was 95.9%. It also gave a viability, T/C [10] of 106%, a viability, T/C [11] of 109% and a viability, T/C [12] of 103%. The viability, T/C (second compound 1 µM, first compound 0.00316 µM) was 91.5%, the viability, T/C (second compound 1 µM, first compound 0.01 µM) was 110% and the viability, T/C [13] was 102%. The viability, T/C [14] was 98.9%, the viability, T/C [15] was 103% and the viability, T/C [16] was 93.1%. For the same molecule, the viability, T/C (second compound 3.16 µM, first compound 0.00316 µM) was 107%, the viability, T/C (second compound 3.16 µM, first compound 0.01 µM) was 95.4% and the viability, T/C [17] was 94.1%. For the same molecule, the viability, T/C [18] was 102%, the viability, T/C [19] was 113% and the viability, T/C [20] was 91.9%. It also gave a viability, T/C (second compound 10 µM, first compound 0.00316 µM) of 105%, a viability, T/C (second compound 10 µM, first compound 0.01 µM) of 104% and a viability, T/C [21] of 101%. It also gave a viability, T/C [22] of 96%, a viability, T/C [23] of 94.2% and a viability, T/C [24] of 90%.
In the case of `CC1COCCN1c1cc(-c2ccnn2C)c2ccnc(-c3ccn[nH]3)c2n1` (stereo unspecified) + COC1C(OC(N)=O)C(O)C(Oc2ccc3c(O)c(NC(=O)c4ccc(O)c(CC=C(C)C)c4)c(=O)oc3c2C)OC1(C)C, the IC50 (second compound 0.0316 µM) is reported as 169 nM, the IC50 (second compound 0.1 µM) is reported as 171 nM and the IC50 (second compound 0.316 µM) is reported as 176 nM. It also gave an IC50 (second compound 1 µM) of 193 nM, an IC50 (second compound 3.16 µM) of 192 nM and an IC50 (second compound 10 µM) of 183 nM. For the same molecule, the viability, T/C [1] was 107%, the viability, T/C [2] was 71.5% and the viability, T/C [3] was 24.6%. For the same molecule, the viability, T/C [4] was 9.79%, the viability, T/C [25] was 8.71% and the viability, T/C [26] was 8.63%. The viability, T/C [5] was 108%, the viability, T/C [6] was 73% and the viability, T/C [7] was 23.4%. For the same molecule, the viability, T/C [8] was 11.9%, the viability, T/C [27] was 9.78% and the viability, T/C [28] was 9.2%. For the same molecule, the viability, T/C [9] was 104%, the viability, T/C [10] was 74.5% and the viability, T/C [11] was 24.1%. It also gave a viability, T/C [12] of 13.5%, a viability, T/C [29] of 11.3% and a viability, T/C [30] of 6.39%. The viability, T/C [13] was 104%, the viability, T/C [14] was 85.4% and the viability, T/C [15] was 23.1%. For the same molecule, the viability, T/C [16] was 13.3%, the viability, T/C [31] was 8.72% and the viability, T/C [32] was 7.58%. For the same molecule, the viability, T/C [17] was 111%, the viability, T/C [18] was 85% and the viability, T/C [19] was 22.9%. For the same molecule, the viability, T/C [20] was 11%, the viability, T/C [33] was 6.98% and the viability, T/C [34] was 7.28%. The viability, T/C [21] was 118%, the viability, T/C [22] was 81.5% and the viability, T/C [23] was 21.1%. For the same molecule, the viability, T/C [24] was 10.7%, the viability, T/C [35] was 9.81% and the viability, T/C [36] was 7.1%.
`CC1COCCN1c1cc(C2(S(C)(=N)=O)CC2)nc(-c2ccnc3[nH]ccc23)n1` (stereo unspecified) + COC1C(OC(N)=O)C(O)C(Oc2ccc3c(O)c(NC(=O)c4ccc(O)c(CC=C(C)C)c4)c(=O)oc3c2C)OC1(C)C gave an IC50 (second compound 0.0316 µM) of 2450 nM, an IC50 (second compound 0.1 µM) of 2390 nM and an IC50 (second compound 0.316 µM) of 2650 nM. It also gave an IC50 (second compound 1 µM) of 2710 nM, an IC50 (second compound 3.16 µM) of 2590 nM and an IC50 (second compound 10 µM) of 2300 nM. It also gave a viability, T/C [1] of 110%, a viability, T/C [2] of 118% and a viability, T/C [3] of 122%. It also gave a viability, T/C [4] of 97.5%, a viability, T/C [25] of 36.7% and a viability, T/C [26] of 12%. For the same molecule, the viability, T/C [5] was 100%, the viability, T/C [6] was 99.2% and the viability, T/C [7] was 118%. It also gave a viability, T/C [8] of 111%, a viability, T/C [27] of 31.6% and a viability, T/C [28] of 12.8%. For the same molecule, the viability, T/C [9] was 110%, the viability, T/C [10] was 103% and the viability, T/C [11] was 117%. It also gave a viability, T/C [12] of 111%, a viability, T/C [29] of 39% and a viability, T/C [30] of 11.1%. For the same molecule, the viability, T/C [13] was 113%, the viability, T/C [14] was 112% and the viability, T/C [15] was 126%. For the same molecule, the viability, T/C [16] was 118%, the viability, T/C [31] was 39.5% and the viability, T/C [32] was 10.5%. It also gave a viability, T/C [17] of 125%, a viability, T/C [18] of 106% and a viability, T/C [19] of 116%. For the same molecule, the viability, T/C [20] was 112%, the viability, T/C [33] was 37.1% and the viability, T/C [34] was 12.3%. For the same molecule, the viability, T/C [21] was 114%, the viability, T/C [22] was 103% and the viability, T/C [23] was 111%. The viability, T/C [24] was 99.9%, the viability, T/C [35] was 30.8% and the viability, T/C [36] was 10.7%.
